Measurements as given in US11046686B2, “Thiadiazole IRAK4 compounds” (Gilead Sciences, Inc., priority 2018, dated 2021).

Test system: TNFα
Test: IRAK4 Monocyte TNFα Cell Based Assay
Set-up: species or system human
Conditions: human monocytes; second part of Table 2, compounds 33-343; unit inferred; read-out: EC50 MONO TNF HTRF
Method: IRAK4 Monocyte TNFα Cell Based Assay Procedure:
The cell suspension was then plated at a density of 5,000 cells/well onto black 384 well Greiner clear bottom plates. Plates were pre-spotted with test compounds and serially diluted in DMSO where 40 nL/well were delivered using the Echo 550 acoustic liquid dispenser (Labcyte®) for a final DMSO concentration of 0.1%. Plated cells were treated with compound for 1 hour at 37° C. Cells were then stimulated with 50 pg/ml of LPS (Sigma) excluding outside columns of plate used for unstimulated cell control wells. Cells were incubated for an additional 4 hours at 37° C. Cells were then spun out of the media and 5 μl of sample were taken and analyzed for total TNFα content using the TR-FRET Human TNFα detection system (CisBio). This system utilizes two labeled antibodies (cryptate and XL665) that bind to two different epitopes of the TNFα molecule and produce FRET signal proportional to the concentration of TNFα in the sample. Detection antibodies are mixed 50:50 and 5 μL were dispensed into each well. Plates were covered with clear seals and incubated at room temp overnight. […] Percent of control was calculated as follows: % Control=100×(Ratiosample−Ratio0% stimulation)/(Ratio100% Stimulation−Ratio0% Stimulation) where unstimulated cells (0% stimulation) were the negative control and stimulated cells (100% stimulation) were used as the positive control.

Compound: CC(=O)N1CCC2(CC1)CN(c1nnc(-c3cnc(-c4ccc5cc(C#N)cnn45)cc3NC(C)C)s1)C2 [Example 67, 7-(5-(5-(7-acetyl-2,7-diazaspiro[3.5]nonan-2-yl)-1,3,4-thiadiazo1-2-yl)-4-(isopropylamino)pyridin-2-yl)pyrrolo[1,2-b]pyridazine-3-carbonitrile]
- EC50: 10.4 nM

Compound: CC(=O)N[C@@H]1C[C@H]2C[C@@H]1CN2c1nnc(-c2cnc(-c3ccc4cc(C#N)cnn34)cc2NC(C)C)s1 [Example 73, N-((1R,4R,5R)-2-(5-(6-(3-cyanopyrrolo[1,2-]pyridazin-7-yl)-4-(isopropylamino)pyridin-3-yl)-1,3,4-thiadiazol-2-yl)-2-azabicyclo[2.2.1]heptan-5-yl)acetamide]
- EC50: 64.1 nM

Compound: CC(=O)N1CCC2(CC1)CN(c1nnc(-c3cnc(-c4ccc5cc(C#N)cnn45)cc3NC3COC3)s1)C2 [Example 75, 7-(5-(5-(7-acetyl-2,7-diazaspiro[3.5]nonan-2-yl)-1,3,4-hiadiazol-2-yl)-4-(oxetan-3-ylamino)pyridin-2-yl)pyrrolo[1,2-b]pyridazine-3-carbonitrile]
- EC50: 3.2 nM

Compound: CC(=O)N1CCC2(CC1)CN(c1nnc(-c3cnc(-c4ccc5cc(C#N)cnn45)cc3NC3CCOCC3)s1)C2 [Example 76, 7-(5-(5-(7-acetyl-2,7-diazaspiro[3.5]nonan-2-yl)-1,3,4-hiadiazol-2-yl)-4-((tetrahydro-2H-pyran-4-yl)amino)pyridin-2-yl)pyrrolo[1,2-b]pyridazine-3-carbonitrile]
- EC50: 4.4 nM

Compound: CC(=O)NC1CCC2(CC1)CN(c1nnc(-c3cnc(-c4ccc5cc(C#N)cnn45)cc3N[C@H](C)C#N)s1)C2 [Example 77]
- EC50: 3.9 nM

Compound: CC(=O)NC1CCC2(CC1)CN(c1nnc(-c3cnc(-c4ccc5cc(C#N)cnn45)cc3NC3COC3)s1)C2 [Example 78, N-(2-(5-(6-(3-cyanopyrrolo[1,2-b]pyridazin-7-yl)-4-(oxetan-3-ylamino)pyridin-3-yl)-1,3,4-thiadiazo1-2-yl)-2-azaspiro[3.5]nonan-7-yl)acetamide]
- EC50: 8.9 nM

Compound: CC(C)Nc1cc(-c2ccc3cc(C#N)cnn23)ncc1-c1nnc(C(C)(C)O)s1 [Example 80, 7-(5-(5-(2-hydroxypropan-2-yl)-1,3,4-thiadiazol-2-yl)-4-(isopropylamino)pyridin-2-yl)pyrro1o[1,2-b]pyridazine-3-carbonitrile]
- EC50: 114 nM

Compound: CC(C)Nc1cc(-c2ccc3cc(C#N)cnn23)ncc1-c1nnc(N2CC3(CCC(C)(O)CC3)C2)s1 [Example 82, 7-(5-(5-(7-hydroxy-7-methyl-2-azaspiro[3.5]nonan-2-yl)-1,3,4-thiadiazo1-2-yl)-4-(isopropylamino)pyridin-2-yl)pyrrolo[1,2-b]pyridazine-3-carbonitrile]
- EC50: 23.1 nM

Compound: CC(=O)N[C@H]1CC[C@@H](c2nnc(-c3cnc(-c4ccc5cc(C#N)cnn45)cc3NC(C)C)s2)OC1 [Example 84, N-((3S,6S)-6-(5-(6-(3-cyanopyrro1o[1,2-b]pyridazin-7-yl)-4-(isopropylamino)pyridin-3-yl)-1,3,4-thiadiazol-2-yl)tetrahydro-2H-pyran-3-yl)acetamide]
- EC50: 8.6 nM

Compound: CC(C)Nc1cc(-c2ccc3cc(C#N)cnn23)ncc1-c1nnc(N2C[C@H]3CC[C@@H](C2)[C@@H]3NC(=O)C(C)(C)O)s1 [Example 85, N-((1R,5S,8s)-3-(5-(6-(3-cyanopyrrolo[1,2-b]pyridazin-7-yl)-4-(isopropylamino)pyridin-3-yl)-1,3,4-thiadiazol-2-yl)-3-azabicyclo[3.2.1]octan-8-yl)-2-hydroxy-2-methylpropanamide]
- EC50: 3.3 nM

Compound: C[C@H](C#N)Nc1cc(-c2ccc3cc(C#N)cnn23)ncc1-c1nnc(N2C[C@H]3CC[C@@H](C2)[C@@H]3NC(=O)C(C)(C)O)s1 [Example 86]
- EC50: 0.6 nM

Compound: CC(C)(O)C(=O)N[C@@H]1[C@@H]2CC[C@H]1CN(c1nnc(-c3cnc(-c4ccc5cc(C#N)cnn45)cc3NC3COC3)s1)C2 [Example 87, N-((1R,5S,8s)-3-(5-(6-(3-cyanopyrrolo[1,2-b]pyridazin-7-yl)-4-(oxetan-3-ylamino)pyridin-3-yl)-1,3,4-thiadiazol-2-yl)-3-azabicyclo[3.2.1]octan-8-yl)-2-hydroxy-2-methylpropanamide]
- EC50: 2.1 nM

Compound: CC(C)Nc1cc(-c2ccc3cc(C#N)cnn23)ncc1-c1nnc(N2C[C@H]3CC[C@@H](C2)[C@@H]3NC(=O)[C@H]2C[C@](C)(O)C2)s1 [Example 92, (1r,3R)-N-((1R,5S,8s)-3-(5-(6-(3-cyanopyrrolo[1,2-b]pyridazin-7-yl)-4-(isopropylamino)pyridin-3-yl)-1,3,4-thiadiazol-2-yl)-3-azabicyclo[3.2.1]octan-8-yl)-3-hydroxy-3-methylcyclobutane-1-carboxamide]
- EC50: 5 nM

Compound: CC(C)Nc1cc(-c2ccc3cc(C#N)cnn23)ncc1-c1nnc(N2C[C@H]3CC[C@@H](C2)[C@@H]3NC(=O)[C@H]2C[C@@](C)(O)C2)s1 [Example 93, (1s,3S)-N-((1R,5S,8s)-3-(5-(6-(3-cyanopyrrolo[1,2-b]pyridazin-7-yl)-4-(isopropylamino)pyridin-3-yl)-1,3,4-thiadiazol-2-yl)-3-azabicyclo[3.2.1]octan-8-yl)-3-hydroxy-3-methylcyclobutane-1-carboxamide]
- EC50: 5.9 nM

Compound: CC(C)Nc1cc(-c2ccc3cc(C#N)cnn23)ncc1-c1nnc(N2C[C@H]3CC[C@@H](C2)[C@@H]3NC(=O)C2(C)COC2)s1 [Example 94]
- EC50: 4 nM

Compound: CC(C)Nc1cc(-c2ccc3cc(C#N)cnn23)ncc1-c1nnc(N2C[C@H]3CC[C@@H](C2)[C@@H]3NC(=O)C2(C)CCOCC2)s1 [Example 95, N-((1R,5S,8s)-3-(5-(6-(3-cyanopyrrolo[1,2-b]pyridazin-7-yl)-4-(isopropylamino)pyridin-3-yl)-1,3,4-thiadiazol-2-yl)-3-azabicyclo[3.2.1]octan-8-yl)-4-methyltetrahydro-2H-pyran-4-carboxamide]
- EC50: 4.1 nM

Compound: CC(C)Nc1cc(-c2ccc3cc(C#N)cnn23)ncc1-c1nnc(N2C[C@H]3CC[C@@H](C2)[C@@H]3NC(=O)C(C)(C)C(=O)O)s1 [Example 97]
- EC50: 21.7 nM

Compound: CC(C)Nc1cc(-c2ccc3cc(C#N)cnn23)ncc1-c1nnc(N2C[C@H]3CC[C@@H](C2)[C@@H]3NC(=O)CN=S(C)(C)=O)s1 [Example 98, N-((1R,5S,8s)-3-(5-(6-(3-cyanopyrrolo[1,2-b]pyridazin-7-yl)-4-(isopropylamino)pyridin-3-yl)-1,3,4-thiadiazol-2-yl)-3-azabicyclo[3.2.1]octan-8-yl)-2-((dimethyl(oxo)-16-sulfanylidene)amino)acetamide]
- EC50: 3.2 nM

Compound: CC(=O)NC1CCC2(CC1)CN(c1nnc(-c3cnc(-c4ccc5cc(C#N)cnn45)cc3NC3(C)COC3)s1)C2 [Example 99]
- EC50: 5.8 nM

Compound: CC(C)Nc1cc(-c2ccc3cc(C#N)cnn23)ncc1-c1nnc(N2C[C@H]3CC[C@@H](C2)[C@@H]3NC(=O)C2CCN(C)CC2)s1 [Example 100, N-((1R,5S,8s)-3-(5-(6-(3-cyanopyrrolo[1,2-b]pyridazin-7-yl)-4-(isopropylamino)pyridin-3-yl)-1,3,4-thiadiazol-2-yl)-3-azabicyclo[3.2.1]octan-8-yl)-1-methylpiperidine-4-carboxamide]
- EC50: 2.1 nM

Compound: CC(C)(O)C(=O)N[C@@H]1[C@@H]2CC[C@H]1CN(c1nnc(-c3cnc(-c4ccc5cc(C#N)cnn45)cc3NC3CCOCC3)s1)C2 [Example 101, N-((1R,5S,8s)-3-(5-(6-(3-cyanopyrrolo[1,2-b]pyridazin-7-yl)-4-((tetrahydro-2H-pyran-4-yl)amino)pyridin-3-yl)-1,3,4-thiadiazol-2-yl)-3-azabicyclo[3.2.1]octan-8-yl)-2-hydroxy-2-methylpropanamide]
- EC50: 1.2 nM

Compound: CC(C)Nc1cc(-c2ccc3cc(C#N)cnn23)ncc1-c1nnc(N2C[C@H]3CC[C@@H](C2)[C@@H]3NC(=O)C(=O)N=S(C)(C)=O)s1 [Example 103, N1-((lR,5S,8s)-3-(5-(6-(3-cyanopyrrolo[1,2-b]pyridazin-7-yl)-4-(isopropylamino)pyridin-3-yl)-1,3,4-thiadiazol-2-yl)-3-azabicyclo[3.2.1]octan-8-yl)-N2-(dimethyl(oxo)-16-sulfanylidene)oxalamide]
- EC50: 1.4 nM

Compound: COC(=O)N1CCN(C(=O)N[C@@H]2[C@@H]3CC[C@H]2CN(c2nnc(-c4cnc(-c5ccc6cc(C#N)cnn56)cc4NC(C)C)s2)C3)CC1 [Example 105, methyl 4-(((1R,5S,8s)-3-(5-(6-(3-cyanopyrrolo[1,2-b]pyridazin-7-yl)-4-(isopropylamino)pyridin-3-yl)-1,3,4-thiadiazol-2-yl)-3-azabicyclo[3.2.1]octan-8-yl)carbamoyl)piperazine-1-carboxylate]
- EC50: 4.2 nM

Compound: CC(C)Nc1cc(-c2ccc3cc(C#N)cnn23)ncc1-c1nnc(N2C[C@H]3CC[C@@H](C2)[C@@H]3NC(=O)N2CCN(S(C)(=O)=O)CC2)s1 [Example 106, N-((1R,5S,8s)-3-(5-(6-(3-cyanopyrrolo[1,2-b]pyridazin-7-yl)-4-(isopropylamino)pyridin-3-yl)-1,3,4-thiadiazol-2-yl)-3-azabicyclo[3.2.1]octan-8-yl)-4-(methylsulfonyl)piperazine-1-carboxamide]
- EC50: 2.6 nM
